A short description of data set [1]: challenge stability study, stability-indicating HPLC assay and physical description. In kind it is physicochemical. The settings on record: sealed vials. On the procedure:
A challenge stability study was carried out with amorphous and crystalline forms. Samples were stored in sealed vials and stored at room temperature (25° C.) and 40° C. Samples were assayed at various times with a stability-indicating HPLC assay. Retained potency was determined and physical description was observed.

Data set [2] can be described thus: relative stability of crystalline forms. In kind it is physicochemical.
Setting [3] is: 25° C., 8 days, hemioxalate salt.
[4] abbreviates: 25° C., 12 days, hemioxalate salt.
The mark [5] stands for this setting: 40° C., 5 days, hemioxalate salt.

Where a name gives a salt, the structure may show the parent alone.

Regarding `CO[C@@H]1[C@H](OC(=O)/C=C/c2ccc(OCCN(C)C)cc2)CCC2(CO2)[C@H]1C1(C)OC1CC=C(C)C` (some centres unmarked) [Amorphous, 6-O-(4-dimethylaminoethoxy)cinnamoyl fumagillol hemioxalate salt], the “% Purity (by peak area)” value in data set [1] (setting [3]) worked out at 86.58%; in data set [1] (setting [4]) it was 83.88%; in data set [1] (setting [5]), 86.91%; in data set [1] (Time zero, hemioxalate salt), 94.98%. In addition, the “Physical Description” value was “White powder” in data set [1] (setting [3]), “White powder” in data set [1] (setting [4]), “White powder” in data set [1] (setting [5]) and “Free flowing” in data set [1] (Time zero).

As to `CO[C@@H]1[C@H](OC(=O)/C=C/c2ccc(OCCN(C)C)cc2)CCC2(CO2)[C@H]1C1(C)OC1CC=C(C)C` (some centres unmarked) [Crystalline, 6-O-(4-dimethylaminoethoxy)cinnamoyl fumagillol hemioxalate salt], the “% Purity (by peak area)” value in data set [1] (setting [3]) is 97.86%; in data set [1] (setting [4]) it was 97.84%; in data set [1] (setting [5]) it was 97.72%; in data set [1] (Time zero, hemioxalate salt), 97.91%. Besides, the “Physical Description” value in data set [1] (setting [3]), in data set [1] (setting [4]), in data set [1] (setting [5]) and in data set [1] (Time zero) was “Free flowing” in each case.

Consider `CO[C@@H]1[C@H](OC(=O)/C=C/c2ccc(OCCN(C)C)cc2)CCC2(CO2)[C@H]1C1(C)OC1CC=C(C)C` (some centres unmarked) [Form B, 6-O-(4-dimethylaminoethoxy)cinnamoyl fumagillol hemioxalate], for which, in data set [2], the “stability relative to Form A” value is “metastable relative to Form A”.

The record behind these values is patent US9260419B2, “Polymorphic salt of a metap-2 inhibitor and methods of making and using same” (Zafgen, Inc., priority 2012, dated 2016).
